Test results from US10370360B2, “Small-molecule inhibitors targeting discoidin domain receptor 1 and uses thereof” (priority 2014, dated 2019).
pIC50: −log10 of the molar value. Read-outs that look alike come from different tables or passages of the source.

Experiments:
[1] = rats; Gao et al., 2013; cited from earlier work
orthotopic AsPC-1 tumors = experiment: survival study, orthotopic AsPC-1 xenograft in NOD-SCID mice; type: in vivo, mouse
human PDA cell lines [2] = experiment: liquid colony forming assay; type: cell-based; conditions: concentration-dependent, 1.5-2 weeks
KPC mice (PDA) = experiment: survival study, KPC genetically engineered mouse model of PDA; type: in vivo
human PDA cell lines [3] = conditions: concentration-dependent, 30 hour
DDR2 = DDR2 (Homo sapiens (Human), UniProt Q16832); experiment: LanthaScreen Eu kinase activity assay, DDR2; type: biochemical; conditions: 100 nM ATP; for pIC50: cells without unit; for IC50: cells printed in μM
Chain of DDR2 (Q16832 22-855): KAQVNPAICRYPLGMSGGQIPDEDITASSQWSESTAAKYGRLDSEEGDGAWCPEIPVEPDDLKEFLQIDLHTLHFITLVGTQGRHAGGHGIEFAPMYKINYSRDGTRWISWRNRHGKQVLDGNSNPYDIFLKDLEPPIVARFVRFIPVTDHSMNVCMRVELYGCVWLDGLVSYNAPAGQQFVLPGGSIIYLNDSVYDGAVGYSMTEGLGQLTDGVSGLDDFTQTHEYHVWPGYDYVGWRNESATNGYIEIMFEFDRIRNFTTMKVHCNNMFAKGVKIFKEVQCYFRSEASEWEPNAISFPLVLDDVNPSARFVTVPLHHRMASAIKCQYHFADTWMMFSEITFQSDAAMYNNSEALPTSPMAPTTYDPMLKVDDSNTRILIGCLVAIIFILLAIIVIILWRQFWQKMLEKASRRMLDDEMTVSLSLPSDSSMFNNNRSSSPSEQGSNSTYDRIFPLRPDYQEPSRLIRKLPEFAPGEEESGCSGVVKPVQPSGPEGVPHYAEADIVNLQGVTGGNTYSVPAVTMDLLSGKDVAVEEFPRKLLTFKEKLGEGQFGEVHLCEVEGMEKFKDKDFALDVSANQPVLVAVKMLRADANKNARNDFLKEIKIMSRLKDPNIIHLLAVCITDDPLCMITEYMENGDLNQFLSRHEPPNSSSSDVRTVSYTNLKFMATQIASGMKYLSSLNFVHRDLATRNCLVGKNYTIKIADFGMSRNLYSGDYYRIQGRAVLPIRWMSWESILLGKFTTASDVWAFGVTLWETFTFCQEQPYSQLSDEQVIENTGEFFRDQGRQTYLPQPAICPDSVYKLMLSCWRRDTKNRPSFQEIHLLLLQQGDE

c-Kit = c-Kit (Homo sapiens (Human), UniProt P10721); experiment: FRET-based Z'-Lyte kinase assay, c-kit; type: biochemical; conditions: 300 μM ATP
Chain of c-Kit (P10721 26-976): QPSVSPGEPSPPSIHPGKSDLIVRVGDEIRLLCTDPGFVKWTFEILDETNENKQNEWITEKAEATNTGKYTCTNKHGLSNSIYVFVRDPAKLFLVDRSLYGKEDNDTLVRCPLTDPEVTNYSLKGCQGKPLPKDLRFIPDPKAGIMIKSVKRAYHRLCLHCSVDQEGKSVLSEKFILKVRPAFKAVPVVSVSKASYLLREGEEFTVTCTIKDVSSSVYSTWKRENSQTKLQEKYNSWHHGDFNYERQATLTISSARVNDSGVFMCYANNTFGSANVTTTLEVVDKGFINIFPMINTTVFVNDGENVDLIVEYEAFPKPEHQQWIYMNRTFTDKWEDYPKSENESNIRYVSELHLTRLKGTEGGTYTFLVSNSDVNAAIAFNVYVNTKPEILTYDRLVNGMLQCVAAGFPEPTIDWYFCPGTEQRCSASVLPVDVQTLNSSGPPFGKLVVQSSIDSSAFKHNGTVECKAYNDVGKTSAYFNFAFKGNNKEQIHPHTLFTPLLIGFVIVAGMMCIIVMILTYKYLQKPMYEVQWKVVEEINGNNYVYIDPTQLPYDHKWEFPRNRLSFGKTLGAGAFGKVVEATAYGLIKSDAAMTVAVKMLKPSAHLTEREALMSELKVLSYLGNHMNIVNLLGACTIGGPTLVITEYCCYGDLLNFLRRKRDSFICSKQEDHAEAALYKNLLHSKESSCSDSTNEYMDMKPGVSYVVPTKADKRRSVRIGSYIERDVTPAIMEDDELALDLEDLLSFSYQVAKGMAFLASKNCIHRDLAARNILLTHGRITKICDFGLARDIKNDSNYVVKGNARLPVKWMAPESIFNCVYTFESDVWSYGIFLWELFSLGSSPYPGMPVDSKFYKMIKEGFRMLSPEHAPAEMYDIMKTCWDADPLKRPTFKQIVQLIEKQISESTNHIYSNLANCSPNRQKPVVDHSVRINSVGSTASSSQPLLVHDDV

DDR1 = DDR1 (Homo sapiens (Human), UniProt Q08345); experiment: LanthaScreen Eu kinase activity assay, DDR1; type: biochemical; conditions: 100 nM ATP
Chain of DDR1 (Q08345 19-913): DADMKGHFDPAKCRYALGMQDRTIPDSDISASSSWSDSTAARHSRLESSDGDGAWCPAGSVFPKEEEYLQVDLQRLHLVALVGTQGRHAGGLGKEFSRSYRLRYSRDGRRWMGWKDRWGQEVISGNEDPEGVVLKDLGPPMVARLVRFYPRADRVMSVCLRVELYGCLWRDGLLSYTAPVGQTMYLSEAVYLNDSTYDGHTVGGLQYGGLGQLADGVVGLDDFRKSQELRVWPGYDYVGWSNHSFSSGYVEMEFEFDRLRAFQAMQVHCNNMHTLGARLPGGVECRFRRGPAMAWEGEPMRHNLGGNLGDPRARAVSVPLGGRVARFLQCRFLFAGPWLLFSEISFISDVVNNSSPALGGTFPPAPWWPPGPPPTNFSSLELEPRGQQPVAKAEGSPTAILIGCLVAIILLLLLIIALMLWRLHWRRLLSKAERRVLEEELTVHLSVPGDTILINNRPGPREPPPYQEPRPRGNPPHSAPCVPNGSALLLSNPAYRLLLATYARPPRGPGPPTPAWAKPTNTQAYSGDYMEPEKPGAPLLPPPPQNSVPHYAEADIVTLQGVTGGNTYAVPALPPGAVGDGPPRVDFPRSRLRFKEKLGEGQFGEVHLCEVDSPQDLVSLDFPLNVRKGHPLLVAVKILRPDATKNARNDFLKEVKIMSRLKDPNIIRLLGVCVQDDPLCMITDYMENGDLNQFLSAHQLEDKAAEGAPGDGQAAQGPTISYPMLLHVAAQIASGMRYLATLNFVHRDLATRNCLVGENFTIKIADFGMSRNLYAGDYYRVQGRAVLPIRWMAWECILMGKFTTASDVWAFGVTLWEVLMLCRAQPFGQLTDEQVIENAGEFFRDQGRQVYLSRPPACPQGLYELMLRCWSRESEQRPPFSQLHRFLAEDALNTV

Bcr-Abl [4] = experiment: FRET-based Z'-Lyte kinase assay, Abl; type: biochemical; conditions: 10 μM ATP; cells printed in μM
Chain of Bcr-Abl (P00519 whole entry): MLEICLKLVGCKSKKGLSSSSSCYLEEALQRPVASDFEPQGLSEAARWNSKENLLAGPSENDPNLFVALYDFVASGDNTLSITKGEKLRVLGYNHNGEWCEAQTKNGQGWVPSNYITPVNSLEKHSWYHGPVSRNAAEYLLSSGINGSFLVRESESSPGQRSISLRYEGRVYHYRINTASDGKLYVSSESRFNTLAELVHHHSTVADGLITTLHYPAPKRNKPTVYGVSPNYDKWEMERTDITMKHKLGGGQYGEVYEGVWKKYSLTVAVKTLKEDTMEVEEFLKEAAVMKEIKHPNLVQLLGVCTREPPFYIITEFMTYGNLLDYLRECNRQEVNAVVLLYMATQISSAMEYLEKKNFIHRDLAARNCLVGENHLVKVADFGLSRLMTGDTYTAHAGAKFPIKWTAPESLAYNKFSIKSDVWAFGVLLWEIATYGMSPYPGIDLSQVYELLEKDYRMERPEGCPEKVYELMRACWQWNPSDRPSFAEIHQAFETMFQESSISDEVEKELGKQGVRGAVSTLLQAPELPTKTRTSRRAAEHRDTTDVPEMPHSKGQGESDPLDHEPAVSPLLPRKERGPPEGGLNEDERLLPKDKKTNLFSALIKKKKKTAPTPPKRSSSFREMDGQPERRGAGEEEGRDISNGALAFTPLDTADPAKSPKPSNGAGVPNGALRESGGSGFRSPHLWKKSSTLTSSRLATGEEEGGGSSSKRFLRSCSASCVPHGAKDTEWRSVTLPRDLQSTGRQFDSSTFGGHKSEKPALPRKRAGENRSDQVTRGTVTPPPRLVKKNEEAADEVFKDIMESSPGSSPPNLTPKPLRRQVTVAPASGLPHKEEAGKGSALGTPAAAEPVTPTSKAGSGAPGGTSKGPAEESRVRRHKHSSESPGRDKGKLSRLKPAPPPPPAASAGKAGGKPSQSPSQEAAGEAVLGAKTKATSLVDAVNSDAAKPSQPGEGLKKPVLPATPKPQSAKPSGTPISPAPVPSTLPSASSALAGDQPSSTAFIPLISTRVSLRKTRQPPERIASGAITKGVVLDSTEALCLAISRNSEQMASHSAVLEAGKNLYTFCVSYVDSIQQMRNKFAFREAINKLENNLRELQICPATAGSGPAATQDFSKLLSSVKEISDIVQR

Bcr-Abl [5] = target: Bcr-Abl (Homo sapiens, UniProt P00519); experiment: FRET-based Z'-Lyte kinase assay, Abl; type: biochemical; conditions: 10 μM ATP; cells printed in μM
Chain of Bcr-Abl (Homo sapiens, UniProt P00519) (P00519 whole entry): as above

AsPC-1 cells = experiment: MTS viability assay, AsPC-1; type: cell-based; conditions: Homo sapiens; for IC50: single agent
PANC-1 cells = experiment: MTS viability assay, PANC-1; type: cell-based; conditions: Homo sapiens; for IC50: single agent

Row | Structure (SMILES) | pIC50 (DDR2) | pIC50 (c-Kit) | pIC50 (DDR1) | IC50 (Bcr-Abl [4]) | IC50 (DDR2) | other results
1 | CCc1ccc(C(=O)Nc2cc(CN3CCN(C)CC3)cc(C(F)(F)F)c2)cc1C#Cc1cnc2ccnn2c1 [Example 7rh, 3-(2-(Pyrazolo[1,5-a]pyrimidin-6-yl)-ethynyl) 7rh benzamide] | – | – | – | – | – | in vivo half-life [1]: ~12 h; primary tumor growth compared to vehicle (orthotopic AsPC-1 tumors; orthotopic AsPC-1, tumor weight vs survival days): reduced; median overall survival (orthotopic AsPC-1 tumors; orthotopic AsPC-1, therapy from day 27 post tumor cell injection, 7rh 25 mg/kg 3×/week oral): 57 days; colony formation (human PDA cell lines [2]): reduced; median of survival (KPC mice (PDA); KPC mice enrolled at 4 months of age, 7rh 25 mg/kg 3×/week oral): 159 days; primary tumor growth compared to vehicle (KPC mice (PDA); KPC mice, tumor weight vs survival days): reduced; cell migration (human PDA cell lines [3]): reduced
2 | CC(C)c1cc(CN2CCN(C)CC2)cc(NC(=O)c2ccc3c(c2)CN(c2cncnc2)CC3C)c1 (stereo not shown) [Example 16, N-(3-isopropyl-5-((4-methylpiperazin-1-yl)methyl)phenyl)-4-methyl-2-(pyrimidin-5-yl)-1,2,3,4-tetrahydroisoquinoline-7-carboxamide] | 6.19 | < 5.00 | 7.45 | 7.2 µM | – | –
3 | CCN1CCN(Cc2cc(NC(=O)c3ccc4c(c3)CN(c3cncnc3)CC4C)cc(C(F)(F)F)c2)CC1 (stereo not shown) [Example 17, N-(3-((4-ethylpiperazin-1-yl)methyl)-5-(trifluoromethyl)phenyl)-4-methyl-2-(pyrimidin-5-yl)-1,2,3,4-tetrahydroisoquinoline-7-carboxamide] | 6.28 | < 5.00 | 7.41 | > 10 µM | – | –
4 | CC1CN(c2cncnc2)Cc2cc(C(=O)Nc3cc(CN4CCCC4)cc(C(F)(F)F)c3)ccc21 (stereo not shown) [Example 20, 4-methyl-2-(pyrimidin-5-yl)-N-(3-(pyrrolidin-1-ylmethyl)-5-(trifluoromethyl)phenyl)-1,2,3,4-tetrahydroisoquinoline-7-carboxamide] | – | < 5.00 | 6.65 | > 10 µM | 2.3 µM | –
5 | CC1CN(c2cncnc2)Cc2cc(C(=O)Nc3cc(CN(C)C)cc(C(F)(F)F)c3)ccc21 (stereo not shown) [Example 21, N-(3-((dimethylamino)methyl)-5-(trifluoromethyl)phenyl)-4-methyl-2-(pyrimidin-5-yl)-1,2,3,4-tetrahydroisoquinoline-7-carboxamide] | – | < 5.00 | 6.60 | > 10 µM | 6.7 µM | –
6 | CC1CN(c2cncnc2)Cc2cc(C(=O)Nc3cc(CN4CCN(C)CC4)cc(C4CCCCC4)c3)ccc21 (stereo not shown) [Example 22, N-(3-cyclohexyl-5-((4-methylpiperazin-1-yl)methyl)phenyl)-4-methyl-2-(pyrimidin-5-yl)-1,2,3,4-tetrahydroisoquinoline-7-carboxamide] | 6.34 | < 5.00 | 7.15 | > 10 µM | – | –
7 | Cc1cn(-c2cc(NC(=O)c3ccc4c(c3)CN(c3cncnc3)CC4C)cc(C(F)(F)F)c2)cn1 (stereo not shown) [Example 26, 4-methyl-N-(3-(4-methyl-1H-imidazol-1-yl)-5-(trifluoromethyl)phenyl)-2-(pyrimidin-5-yl)-1,2,3,4-tetrahydroisoquinoline-7-carboxamide] | – | < 5.00 | – | – | – | IC50 (Bcr-Abl [5]): 7.2 µM
8 | CC1CN(c2cncnc2)Cc2cc(C(=O)Nc3cc(CN4CCN(C5CCCCC5)CC4)cc(C(F)(F)F)c3)ccc21 (stereo not shown) [Example 33, N-(3-((4-cyclohexylpiperazin-1-yl)methyl)-5-(trifluoromethyl)phenyl)-4-methyl-2-(pyrimidin-5-yl)-1,2,3,4-tetrahydroisoquinoline-7-carboxamide] | 6.02 | < 5.00 | 7.10 | > 10 µM | – | –
9 | CC1CN(c2cncnc2)Cc2cc(C(=O)Nc3cc(CN4CCSCC4)cc(C(F)(F)F)c3)ccc21 (stereo not shown) [Example 35, 4-methyl-2-(pyrimidin-5-yl)-N-(3-(thiomorpholinomethyl)-5-(trifluoromethyl)phenyl)-1,2,3,4-tetrahydroisoquinoline-7-carboxamide] | – | < 5.00 | 6.68 | > 10 µM | 3.7 µM | –
10 | Nc1ccn([C@@H]2O[C@H](CO)[C@@H](O)C2(F)F)c(=O)n1 [Gemcitabine, gemcitabine] | – | – | – | – | – | IC50 (AsPC-1 cells; ASPC1, AsPC-1, collagen coating, read-out: Gemcitabine (nM) Avg IC50s Collagen): 2000 nM; IC50 (AsPC-1 cells; ASPC1, AsPC-1, plastic coating, read-out: Gemcitabine (nM) Avg IC50s Plastic): > 2000 nM; pIC50 (AsPC-1 cells; ASPC1, read-out: 500 nM 7rh + Gem Avg IC50s Plastic, AsPC-1, plastic, fixed 500 nM 7rh with gemcitabine titration): ≥ 8.70; IC50 (PANC-1 cells; PANC-1, PANC-1, collagen coating, read-out: Gemcitabine (nM) Avg IC50s Collagen): 2000 nM; IC50 (PANC-1 cells; PANC-1, PANC-1, plastic coating, read-out: Gemcitabine (nM) Avg IC50s Plastic): > 2000 nM; pIC50 (PANC-1 cells; PANC-1, read-out: 500 nM 7rh + Gem Avg IC50s Plastic, PANC-1, plastic, fixed 500 nM 7rh with gemcitabine titration): ≥ 8.70

Continued, in another order:

Row | pIC50 (DDR2) | pIC50 (c-Kit) | pIC50 (DDR1) | IC50 (Bcr-Abl [4]) | IC50 (DDR2) | Structure (SMILES) | other results
11 | – | < 5.00 | 6.71 | > 10 µM | 4.5 µM | CC1CN(c2cncnc2)Cc2cc(C(=O)Nc3cc(CN4CCOCC4)cc(C(F)(F)F)c3)ccc21 (stereo not shown) [Example 18, 4-methyl-N-(3-(morpholinomethyl)-5-(trifluoromethyl)phenyl)-2-(pyrimidin-5-yl)-1,2,3,4-tetrahydroisoquinoline-7-carboxamide] | –
12 | – | < 5.00 | 6.78 | > 10 µM | 2.2 µM | CC1CN(c2cncnc2)Cc2cc(C(=O)Nc3cc(CN4CCCCC4)cc(C(F)(F)F)c3)ccc21 (stereo not shown) [Example 19, 4-methyl-N-(3-(piperidin-1-ylmethyl)-5-(trifluoromethyl)phenyl)-2-(pyrimidin-5-yl)-1,2,3,4-tetrahydroisoquinoline-7-carboxamide] | –
13 | – | < 5.00 | 6.26 | > 10 µM | 7.6 µM | CC1Cc2ccc(C(=O)Nc3cc(CN4CCN(C)CC4)cc(C(F)(F)F)c3)cc2CN1c1cncnc1 (stereo not shown) [Example 30, 3-methyl-N-(3-((4-methylpiperazin-1-yl)methyl)-5-(trifluoromethyl)phenyl)-2-(pyrimidin-5-yl)-1,2,3,4-tetrahydroisoquinoline-7-carboxamide] | –
